Reference: patent US20260364072A1, “METHODS FOR PROMOTING EXPANSION OF HUMAN CD34+ CELLS IN VIVO AND FOR PROMOTING NEURAL REGENERATION” (THE REGENTS OF THE UNIVERSITY OF CALIFORNIA, priority 2023, published 2026)

What was measured:
RNA editing = test: Whole transcriptome RNA editing analysis of CD34+ cells from sAML50261 engrafted mice; type: in vivo, human cells in mice; details: mice treated with 5 or 10 mg/kg
Protocol: FIG. 30E illustrates a whole transcriptome-based RNA editing analyses of previously-described RNA-seq data^14 generated from CD34^+ cells isolated from the spleens of sAML50261 engrafted mice treated with Rebecsinib or vehicle;
For RNA editing analyses of whole transcriptome sequencing data, previous datasets were utilized from CD34^+ cells isolated from the spleens of sAML50261-engrafted mice treated once weekly with Rebecsinib in a dose-response assay (5 or 10 mg/kg),^14 along with CD34^+ cells harvested from mice that were serially transplanted with CD34+ cells from sAML50261-engrafted mice that had been treated twice weekly with Rebecsinib at 10 mg/kg (no further treatment was delivered to serial transplant recipients). Due to limiting number of cells remaining after treatment, cells were pooled from n=4 to 5 mice per condition for sequencing. RNA editing analysis was performed as previously described.^5

[1] = Multi-species (rat, rabbit, NHP) pre-IND studies; type: in vivo
Protocol: […] Rat and rabbit studies included toxicology analyses, quantification of plasma levels of Rebecsinib, and necropsies to evaluate organ integrity after treatment. For NHP studies, health and ophthalmological evaluations were performed before and after dosing with Rebecsinib, and blood samples were collected for quantification of plasma levels of Rebecsinib and biomarker studies in PBMCs from treated and control animals. All monkeys were returned to the animal colony after the end of the observation period. Toxicokinetic values including mean plasma concentrations and t1/2 values were calculated according to CRO-approved protocols (Charles River and BASi).

[2] = tested on: human CD45+ADAR1-GFP+ cells and CD45+CD3+ADAR1-GFP+ cells; test: aNBM SAK378 PDX mice, flow cytometry; type: in vivo, human cells in NSG-SGM3 mice; details: 10 mg/kg, IV, BIW×2
Protocol: Aged normal bone marrow (aNBM) PDX mouse models SAK378 were established with 80-100K ADAR1-reporter transduced CD34+ cells by IV injection into NSG-SGM3 mice at the age of 5-6 weeks. When the models were ready, the mice were treated with either vehicle or rebecsinib (10 mg/kg, IV, BIW×2). The mice were sacrificed upon completion of the dosing plan, and single cells from PB, SP, and BM were collected and stained with mAbs for CD45, CD3, CD14, and CD19.

ADAR1p150 [3] = test: ADAR1p150 protein by intracellular flow cytometry in sAML50261 engrafted mice; type: in vivo, human cells in mice; details: human HSC and HPC, spleens of sAML50261 engrafted mice, vs vehicle
Protocol: FIG. 30D illustrates a mean fluorescence intensity (MFI) of ADAR1p150 protein levels in human HSCs (CD45^+CD34^+CD38^−Lin^−) and HPCs (CD45^+CD34^+CD38^+Lin^−) from the spleens of sAML50261 engrafted mice treated with Rebecsinib or vehicle;
(§1) Flow cytometry for stem and progenitor cell surface antibody staining was performed as previously described.^14 For phospho-flow, a subset of samples was fixed and permeabilized, then blocked and stained with APC-conjugated ADAR1p150 antibody (cat ab269444, 1:25) and pSTAT3 APC (cat 17-9033-42, 1:10) (Table S2). Fractions were analyzed with the BD LSR FORTESSA™ (Sanford Consortium for Regenerative Medicine Stem Cell Core) and FLOWJO™ software (TreeStar, Ashland, OR).
(§2) In humanized mouse models, sAML cells (CD34^+) from two unique […] patient samples that were splicing factor mutated or unmutated were utilized, including sAML50261 and sAML2008-5.^14 For in vivo efficacy and therapeutic index studies, sAML CD34^+ cells, or normal human cord blood-derived or aged bone marrow-derived HSPCs (CD34^+), were transplanted (50,000-200,000 cells per mouse) intrahepatically into neonatal Rag2^−/−γc^−/− mice, or intravenously into adult NSG-SGM3 mice (Jackson Laboratories, Bar Harbor, ME). A subset of experiments was performed with normal aged bone marrow cells that were transduced with the lentiviral ADAR1 nanoluc-GFP reporter vector prior to transplant. […]

ADAR1p150 [4] = test: ADAR1p150 protein by intracellular flow cytometry in high-risk MF samples; type: cell-based, human; details: 72 hr
Protocol: (FIG. 28C) Flow cytometry-based quantification of ADAR1 p150 protein expression in high-risk MF samples after in vitro transduction of primary CD34^+ cells with ADAR1 nanoluc-GFP reporter or vector control (pCDH) followed by treatment with vehicle control (DMSO) or Rebecsinib (72 hr).
as §1

normal aged HSPC = test: ADAR1 nanoluc-GFP aged normal bone marrow CD34+ engrafted mice; type: in vivo, human cells in immunocompromised mice; details: 10 mg/kg
Text: To further test the utility of the ADAR1 nanoluc-GFP reporter for in vivo detection of endogenous ADAR1 activity, primary human aged normal bone marrow CD34^+ cells were transduced with the reporter vector and transplanted into immunocompromised mice. ADAR1 activity was detected by live animal bioluminescence imaging and corresponded with human cell engraftment detection by flow cytometry.
as §2, with “transplant. For transplantation into adult mice, animals were irradiated with ^137Cs at a dose of 150 cGy 24 hr before IV transplantation.” for “transplant.”

MCL1 transcripts = test: MCL1-S/L ratio by splice isoform-specific qRT-PCR in primary CD34+ MF HPC and LSC; type: cell-based, human; details: 0.1 μM, compared with vehicle, short-term culture, no stroma

With CC[C@H](OC)[C@@H](C)[C@H]1O[C@@H]1[C@@H](O)[C@H](C)/C=C/C=C(\C)[C@H]1OC(=O)C[C@H](O)CC[C@@](C)(O)[C@@H](OC(C)=O)/C=C/[C@@H]1C [Rebecsinib] the RNA editing activity (RNA editing) was “global downregulation of RNA editing activity that occurred in a dose-responsive manner”, the systemic toxicity [1] was “no evidence of systemic toxicity” and the bioavailability and stability ([1]; clinically tractable formulation) was “favorable bioavailability and stability”. The “tolerability in rat, rabbit, NHP” value ([1]; pre-IND studies) was “well tolerated”, the splicing modulation ([1]; rat, rabbit, NHP) was “dose-dependent increases in splicing modulation” and the “CD45+CD3+GFP+ cells in PB, SP, and BM” value [2] was “spares the cell populations”. For the same compound, the “CD45+GFP+ cells in PB, SP, and BM” value [2] was “spares the cell populations”, the “ADAR1p150 protein isoform levels” value (ADAR1p150 [3]) was “significantly decreased ADAR1p150 protein isoform levels” and the ADAR1p150 protein expression (ADAR1p150 [4]) was “reduced ADAR1p150 protein expression”. The “human HSPC engraftment and mature T or B cell maturation” value (normal aged HSPC) was “no loss of human HSPC engraftment or mature T or B cell maturation”, the “frequency of normal CD34+ cells in bone marrow” value (normal aged HSPC; in comparison to cord blood transplantation models) was “appeared to be increased” and the MCL1-S/L transcript ratio (MCL1 transcripts) was “elevated expression of pro-apoptotic MCL1-short (S) compared with anti-apoptotic MCL1-long (L) transcripts”.
